Data taken from patent US5373000A, “7Beta-(thiadiazolyl)-2-iminoacetamido-3cephem compounds” (Eisai Co., Ltd., priority 1985, dated 1994).
≈ marks a conversion by molar mass, not a printed value. Where a name gives a salt, the structure may show the parent alone. Read-outs that look alike come from different tables or passages of the source.

What was measured:
Test in all cases: Antibacterial activities, MIC
Type in all cases: cell-based
[1] = system: Staph. aureus 209-P
[2] = system: Escher. coli NIHJ
[3] = system: Kleb Pneumoniae EK-6
[4] = system: Ser. marcescens ES-75
[5] = system: Morg. morganii EP-14
[6] = system: Pseud. aeruginosa EP-01
[7] = Staphylococcus aureus, read-out: MIC
[8] = Escherichia coli, read-out: MIC
[9] = Serratia marcescens, ES75, read-out: MIC
[10] = Morganella morganii, EP14, Morg. morganii EP-14, read-out: MIC
[11] = Pseudomonas aeruginosa, EP01, Pseud. aeruginosa EP-01, read-out: MIC

Structure (SMILES) | MIC [1, 7] [mg/L] | MIC [2, 8] [mg/L] | MIC ([3]; read-out: MIC) [mg/L] | MIC [4, 9] [mg/L] | MIC [5, 10] [mg/L] | MIC [6, 11] [mg/L] | MIC [1] [mg/L] | MIC [2] [mg/L] | MIC [3] [mg/L] | MIC [4] [mg/L] | MIC ([5]; Morg. morganii EP-14) [mg/L] | MIC ([6]; Pseud. aeruginosa EP-01) [mg/L]
CO/N=C(\C(=O)N[C@@H]1C(=O)N2C(C(=O)[O-])=C(/C=C/C[N+](C)(C)Cc3ccoc3)CS[C@H]12)c1nsc(N)n1 [Example 26, 7β-[2-(5-Amino-1,2,4-thiadiazol-3-yl)-(Z)-2-methoxyiminoacetamido]-3-[(E)-3-[(furan-3-yl)-methyldimethylammonio]-1-propen-1-yl]-3-cephem-4-carboxylate] | 0.2 (≈ 0.365 µM) | ≤ 0.025 | ≤ 0.025 | 0.05 (≈ 0.0913 µM) | ≤ 0.025 | 3.13 (≈ 5.72 µM) |  |  |  |  |  | 
CC[N+](CC)(C/C=C/C1=C(C(=O)[O-])N2C(=O)[C@@H](NC(=O)/C(=N\OC)c3nsc(N)n3)[C@H]2SC1)CC(N)=O [Example 11, 7β-[2-(5-Amino-1,2,4-thiadiazol-3-yl)-(Z)-2-methoxyiminoacetamido]-3-[(E)-3-(carbamoylmethyldiethylammonio)-1-propen-1-yl]-3-cephem-4-carboxylate] | 0.2 (≈ 0.362 µM) | 0.05 (≈ 0.0905 µM) | ≤ 0.025 | 0.1 (≈ 0.181 µM) | 0.05 (≈ 0.0905 µM) | 1.56 (≈ 2.82 µM) |  |  |  |  |  | 
CO/N=C(\C(=O)N[C@@H]1C(=O)N2C(C(=O)[O-])=C(/C=C/C[N+]3(C)CC=CC3)CS[C@H]12)c1nsc(N)n1 [Example 2, 7β-[2-(5-Amino-1,2,4-thiadiazol-3-yl)-(Z)-2-methoxyiminoacetamido]-3-[(E)-3-(1-methyl-3-pyrrolinio)-1-propene-1-yl)-3-cephem-4-carboxylate] | 0.2 (≈ 0.396 µM) | 0.05 (≈ 0.0989 µM) | ≤ 0.025 | 0.1 (≈ 0.198 µM) | 0.05 (≈ 0.0989 µM) | 1.56 (≈ 3.09 µM) |  |  |  |  |  | 
CO/N=C(\C(=O)N[C@@H]1C(=O)N2C(C(=O)[O-])=C(/C=C/C[N+]34CCCN3CCC4)CS[C@H]12)c1nsc(N)n1 [Example 38, 7β-[2-(5-Amino-1,2,4-thiadiazol-3-yl)-(Z)-2-methoxyiminoacetamido]-3-[(E)-3-(1,5-diazabicyclo[3,3,0]octan-1-io)-1-propen-1-yl]-3-cephem-4-carboxylate] | 0.2 (≈ 0.374 µM) | ≤ 0.025 | ≤ 0.025 | 0.1 (≈ 0.187 µM) | 0.05 (≈ 0.0935 µM) | 1.56 (≈ 2.92 µM) |  |  |  |  |  | 
CO/N=C(\C(=O)N[C@@H]1C(=O)N2C(C(=O)[O-])=C(/C=C/C[N+](C)(C)CCO)CS[C@H]12)c1nsc(N)n1 [Example 18-A, 7β-[2-(5-Amino-1,2,4-thiadiazol-3-yl)-(Z)-2-methoxyiminoacetamido]-3-[(E)-3-(2-hydroxyethyldimethylammonio)-1-propen-1-yl]-3-cephem-4-carboxylate] | 0.2 (≈ 0.391 µM) | ≤ 0.025 | ≤ 0.025 | 0.1 (≈ 0.195 µM) | 0.05 (≈ 0.0977 µM) | 0.8 (≈ 1.56 µM) |  |  |  |  |  | 
CO/N=C(\C(=O)N[C@@H]1C(=O)N2C(C(=O)[O-])=C(/C=C/C[N+]3(C)CCCN3C)CS[C@H]12)c1nsc(N)n1 (single isomer, unassigned) [Example 30-A, 7β-[2-(5-Amino-1,2,4-thiadiazol-3-yl)-(Z)-2-methoxyiminoacetamido]-3-[(E)-(1,2-dimethyl-1-pirazolydinio)-1-propen-1-yl]-3-cephem-4-carboxylate] | 0.1 (≈ 0.191 µM) | ≤ 0.025 | ≤ 0.025 | 0.05 (≈ 0.0957 µM) | ≤ 0.025 | 0.4 (≈ 0.765 µM) |  |  |  |  |  | 
CO/N=C(\C(=O)N[C@@H]1C(=O)N2C(C(=O)[O-])=C(/C=C/C[N+]3(C)CCN(S(N)(=O)=O)CC3)CS[C@H]12)c1nsc(N)n1 [Example 27, 7β-[2-(5-Amino-1,2,4-thiadiazol-3-yl)-(Z)-2-methoxyiminoacetamido]-3-[(E)-3-(1-methyl-4-sulfamoyl-1-piperazinio)-1-propen-1-yl]-3-cephem-4-carboxylate] | 0.2 (≈ 0.332 µM) | ≤ 0.025 | ≤ 0.025 | 0.1 (≈ 0.166 µM) | 0.05 (≈ 0.0831 µM) | 0.8 (≈ 1.33 µM) |  |  |  |  |  | 
CO/N=C(\C(=O)N[C@@H]1C(=O)N2C(C(=O)[O-])=C(/C=C/C[N+](C)(C)CCC(N)=O)CS[C@H]12)c1nsc(N)n1 [Example 35, 7β-[2-(5-Amino-1,2,4-thiadiazol-3-yl)-(Z)-2-methoxyiminoacetamido]-3-[(E)-3-[N,N-dimethyl-N-(2-carbamoylethyl)ammonio]-1-propen-1-yl]-3-cephem-4-carboxylate] | 0.2 (≈ 0.371 µM) | ≤ 0.025 | 0.1 (≈ 0.186 µM) | 0.05 (≈ 0.0928 µM) | 0.05 (≈ 0.0928 µM) | 0.8 (≈ 1.49 µM) |  |  |  |  |  | 
CO/N=C(\C(=O)N[C@@H]1C(=O)N2C(C(=O)[O-])=C(/C=C/C[N+]34CCC(C(N)=O)(CC3)CC4)CS[C@H]12)c1nsc(N)n1 [Example 4, 7β-[2-(5-Amino-1,2,4-thiadiazol-3-yl)-(Z)-2-methoxyiminoacetamido]-3-[(E)-3-(4-carbamoylquinuclidinio)-1-propen-1-yl]-3-cephem-4-carboxylate] | 0.4 (≈ 0.694 µM) | 0.05 (≈ 0.0867 µM) | ≤ 0.025 | 0.1 (≈ 0.173 µM) | 0.05 (≈ 0.0867 µM) | 1.56 (≈ 2.71 µM) |  |  |  |  |  | 
CO/N=C(\C(=O)N[C@@H]1C(=O)N2C(C(=O)[O-])=C(/C=C/C[N+]3(C)CCN(C(N)=O)CC3)CS[C@H]12)c1nsc(N)n1 [Example 29, 7β-[2-(5-Amino-1,2,4-thiadiazol-3-yl)-(Z)-2-methoxyiminoacetamido]-3-[(E)-3-(1-methyl-4-carbamoyl-1-piperazinio)-1-propen-1-yl]-3-cephem-4-carboxylate] | 0.4 (≈ 0.707 µM) | 0.05 (≈ 0.0884 µM) | 0.05 (≈ 0.0884 µM) | 0.1 (≈ 0.177 µM) | 0.05 (≈ 0.0884 µM) | 1.56 (≈ 2.76 µM) |  |  |  |  |  | 
CO/N=C(\C(=O)N[C@@H]1C(=O)N2C(C(=O)[O-])=C(/C=C/C[N+]3(CC(N)=O)CC[C@@H](O)C3)CS[C@H]12)c1nsc(N)n1 (some centres unmarked) [Example 45-1] | 0.4 (≈ 0.706 µM) | ≤ 0.025 | ≤ 0.025 | 0.05 (≈ 0.0882 µM) | ≤ 0.025 | 0.8 (≈ 1.41 µM) |  |  |  |  |  | 
CO/N=C(\C(=O)N[C@@H]1C(=O)N2C(C(=O)[O-])=C(/C=C/C[N+]3(C)CCNCC3)CS[C@H]12)c1nsc(N)n1 [Example 5, 7β-[(2-(5-Amino-1,2,4-thiadiazol-3-yl)-(Z)-2-methoxyiminoacetamido]-3-[(E)-3-(1-methyl-1-piperadinio)-1-propen-1-yl]-3-cephem-4-carboxylate trifluoroacetate] | 0.2 | 0.05 | ≤ 0.025 | 0.1 | 0.1 | 0.8 |  |  |  |  |  | 
CCO/N=C(\C(=O)N[C@@H]1C(=O)N2C(C(=O)[O-])=C(/C=C/C[N+](C)(C)CC(N)=O)CS[C@H]12)c1nsc(N)n1 [Example 15, 7β-[2-(5-Amino-1,2,4-thiadiazol-3-yl)-(Z)-2-ethoxyiminoacetamido]-3-[(E)-3-(carbamoylmethyldimethylammonio)-1-propen-1-yl]-3-cephem-4-carboxylate] | 0.2 (≈ 0.371 µM) | 0.1 (≈ 0.186 µM) | 0.05 (≈ 0.0928 µM) | 0.2 (≈ 0.371 µM) | 0.05 (≈ 0.0928 µM) | 1.56 (≈ 2.9 µM) |  |  |  |  |  | 
CO/N=C(\C(=O)N[C@@H]1C(=O)N2C(C(=O)[O-])=C(/C=C/C[N+](C)(C)Cc3cc[nH]n3)CS[C@H]12)c1nsc(N)n1 [Example 24, 7β-[2-(5-Amino-1,2,4-thiadiazol-3-yl)-(Z)-2-methoxyiminoacetamido]-3-[(E)-3-[(pyrazol-3-yl)methyldimethylammonio]-1-propen-1-yl]-3-cephem-4-carboxylate] | 0.2 (≈ 0.365 µM) | ≤ 0.025 | ≤ 0.025 | 0.1 (≈ 0.183 µM) | 0.05 (≈ 0.0913 µM) | 3.13 (≈ 5.72 µM) |  |  |  |  |  | 
CO/N=C(\C(=O)N[C@@H]1C(=O)N2C(C(=O)[O-])=C(/C=C/C[N+]3(C)CCCN3C)CS[C@H]12)c1nsc(N)n1 (single isomer, unassigned) [Example 30-B, 7β-[2-(5-Amino-1,2,4-thiadiazol-3-yl)-(Z)-2-methoxyiminoacetamido]-3-[(E)-(1,2-dimethyl-1-pirazolydinio)-1-propen-1-yl]-3-cephem-4-carboxylate] |  |  |  |  |  |  | 0.1 (≈ 0.191 µM) | ≤ 0.025 | ≤ 0.025 | 0.05 (≈ 0.0957 µM) | 0.05 (≈ 0.0957 µM) | 0.8 (≈ 1.53 µM)
CO/N=C(\C(=O)N[C@@H]1C(=O)N2C(C(=O)[O-])=C(/C=C/C[N+]3(C)CC(O)CC3CO)CS[C@H]12)c1nsc(N)n1 (some centres unmarked) [Example 43] | 0.4 (≈ 0.723 µM) | 0.05 (≈ 0.0903 µM) | ≤ 0.025 | 0.05 (≈ 0.0903 µM) | ≤ 0.025 | 1.56 (≈ 2.82 µM) |  |  |  |  |  | 
CO/N=C(\C(=O)N[C@@H]1C(=O)N2C(C(=O)[O-])=C(/C=C/C[N+](C)(C)Cc3cscn3)CS[C@H]12)c1nsc(N)n1 [Example 23, 7β-[2-(5-Amino-1,2,4-thiadiazol-3-yl)-(Z)-2-methoxyiminoacetamido]-3-[(E)-3[(thiazol-4-yl)methyldimethylammonio]-1-propen-1-yl]-3-cephem-4-carboxylate] | 0.2 (≈ 0.354 µM) | ≤ 0.025 | ≤ 0.025 | 0.05 (≈ 0.0885 µM) | ≤ 0.025 | 3.13 (≈ 5.54 µM) |  |  |  |  |  | 
CO/N=C(\C(=O)N[C@@H]1C(=O)N2C(C(=O)[O-])=C(/C=C/C[N+](C)(C)Cc3ncon3)CS[C@H]12)c1nsc(N)n1 [Example 21] | 0.2 (≈ 0.364 µM) | ≤ 0.025 | ≤ 0.025 | 0.05 (≈ 0.091 µM) | ≤ 0.025 | 1.56 (≈ 2.84 µM) |  |  |  |  |  | 
CO/N=C(\C(=O)N[C@@H]1C(=O)N2C(C(=O)[O-])=C(/C=C/C[n+]3ccc4n3CCOC4)CS[C@H]12)c1nsc(N)n1 [Example 14, 7β-[2-(5-Amino-1,2,4-thiadiazol-3-yl)-(Z)-2-methoxyiminoacetamido]-3-[(E)-(1-morpholino[4,3-b]pyrazolio)-1-propen-1-yl]-3-cephem-4-carboxylate] | 0.2 (≈ 0.366 µM) | ≤ 0.025 | ≤ 0.025 | 0.05 (≈ 0.0915 µM) | 0.05 (≈ 0.0915 µM) | 1.56 (≈ 2.85 µM) |  |  |  |  |  | 
CO/N=C(\C(=O)N[C@@H]1C(=O)N2C(C(=O)[O-])=C(/C=C/C[N+]3(CC(N)=O)CC[C@@H](O)C3)CS[C@H]12)c1nsc(N)n1 (some centres unmarked) [Example 45-2] |  |  |  |  |  |  | 0.4 (≈ 0.706 µM) | 0.05 (≈ 0.0882 µM) | ≤ 0.025 |  | ≤ 0.025 | 0.8 (≈ 1.41 µM)
